Literature values, collected in patent US20230235017A1, “A DRUG SCREENING PLATFORM FOR ENDOSOMAL ENHANCERS TO TREAT ALZHEIMER'S DISEASE” (Aarhus Universitet, priority 2020, published 2023).

System: endosomal activity
Details: shown in the literature (Mecozzi 2014); cited from earlier work

N=C(N)SCc1ccc(CSC(=N)N)s1 [R55]
effect on endosomal activity: have an effect on endosomal activity
